Data from patent publication US4879382A, “Pyrido(3,4-f)pyrrolo(1,2-b)(1,2,5)triazepines” (Hoechst-Roussel Pharmaceuticals, Inc., priority 1988, dated 1989).

Key:
[1] = tetrabenazine induced ptosis assay (antidepressant activity); assay type: in vivo, mice (Charles River, CD-1); details: mice; for ED50: Mus musculus, ip, dose for 50% inhibition of tetrabenazine-induced ptosis
Method: Several of the compounds of this invention are also useful as antidepressants by virtue of their ability to elicit an antidepressant response in mammals. Antidepressant activity is determined by the tetrabenazine induced ptosis assay in mice, [International Journal of Neuropharmacology, 8, 72 (1969], a standard assay for the determination of antidepressant activity. […] Tetrabenazine methanesulfonate (76.78% as the free base) is dissolved in distilled water and the concentration of the solution is adjusted so that the dose, administered intraperitoneally (i.p.) to the animals, is 40 mg of tetrabenazine base per kg of animal body weight. The test compound is administered intraperitoneally (i.p.) or orally to the subject animals, and the tetrabenazine solution is administered 30 minutes or 60 minutes, respectively, thereafter. Tetrabenazine solution and the solvent used to dissolve, or suspend, the test compounds are administered by the same route and at the same intervals as the test compounds to a control group. […] The vehicle-control group score is used as a determination of the validity of each test. The results are discarded and the test is repeated, if the control score is determined to be less than 17. […] A linear-regression analysis is used to estimate ED50 values and 95% confidence limits.

[2] = dark avoidance assay (memory enhancing activity); assay type: in vivo; details: mice
Method: Pursuant to the dark avoidance assay, mice are tested for their ability to remember an unpleasant stimulus for a period of 24 hours. A mouse is placed in a chamber that contains a dark compartment; a strong incandescent light drives it to the dark compartment, where an electric shock is administered through metal plates on the floor. The animal is removed from the testing apparatus and tested again, 24 hours later, for the ability to remember the electric shock.

[3] = phenyl-p-quinone writhing assay (analgesic activity); assay type: in vivo, mice (Charles River, CD-1); details: mice
Method: The compounds of this invention are useful as analgesic agents due to their ability to alleviate pain in mammals. The procedure employed to determine analgetic utility is a modification of the phenyl-p-quinone writhing assay in mice, a standard assay for analgetic activity [Proc. Soc. Exptl. Med., 95 729 (1957)]. Pursuant to the modified procedure phenyl-p-benzoquinone (Eastman, 12.5 mg) is dissolved in 5 ml of 95% ethanol and the solution is diluted to a total volume of 100 ml with distilled water. The solution is administered to the subject mice intraperitoneally at a dose of 10 ml per kg of body weight. A characteristic "writhe", an inward rotation of one or more feet with twisting and turning of the trunk, drawing in of the abdominal wall, lordosis and arching of the back, is produced.
A total of 28 male mice (Charles River, CD-1), weighing 18 to 30 grams, are employed for a time response. The subject animals receive food and water ad libitum. Test compounds are dissolved in distilled water, or suspended in distilled water containing one drop of a suitable surfactant, such as Tween-80.
Four groups of five animals (20 animals) are given the test compound subcutaneously (s.c.) or perorally (p.o.) at 15, 30, 45 and 60 minutes prior to administration of the phenyl-p-benzoquinone. A control group (2 animals per group) receive an equal volume of the vehicle. After the administration of the phenyl-p-benzoquinone, the mice are placed separately in one liter beakers, and after five minutes, are observed for ten minutes. The number of writhes for each animal is recorded. Thefollowing formula is used to compute the percent inhibition: [formula]
A dose range determination is run in the same manner as the time response except 10 animals per group are tested at the peak time of test drug activity. Fifty animals, 4 test drug groups, and a vehicle control are employed. Animals are dose and tested in a randomized manner. The time period with the greatest percent of inhibition is considered the peak time.

[4] = adjuvant-induced polyarthritis syndrome in rats assay (antiinflammatory activity); assay type: in vivo, rats (Charles River-Wistar Lewis); details: Rattus norvegicus, po, 504 h, read-out: Non-Injected Paw ED50
Method: Several of the compounds of this invention have utility as antiinflammatory agents. Antiinflammatory activity was measured pursuant to the adjuvant-induced polyarthritis syndrome in rats assay by a procedure similar to that described by C. M. Pearson and F. D. Wood, Arthritis and Rheumatism, 2, 440 (1959).
Groups of 10 male Charles River-Wistar Lewis rats weighing 150 to 175 g were individually housed and maintained on a regular rat chow diet. Water was given ad libitum. The adjuvant was prepared by suspending 75 mg of Mycobacterium butyricum (Difco Laboratories, Detroit, Mich.) in 10 ml of white paraffin oil with continuous stirring for 2 hours at room temperature prior to administration. Test compounds are prepared by suspending the drug in water, adding one drop of Tween 80 per 10 ml of suspension, and homogenizing. The adjuvant suspension (0.1 ml) was injected into the footpad of the left hind paw of the rat. Test compound suspensions were administered orally (10 ml/kg) the day before adjuvant suspension injection and the administration was continued daily for 21 days. […] Injected and non-injected paw volumes were determined on the day the adjuvant suspension was given, and on subsequent days thereafter (usually days 5, 10, 18, and 21) by the method of C. […]
The percent inhibition of paw volume (injected and non-injected paw) were calculated by the following formula: [formula] […]

In the case of `CC1Nc2cnccc2N(C)n2cccc21` (centres unmarked) [10,11-Dihydro-5,10-dimethyl-5H-pyrido[3,4-f]pyrrolo[1,2-b][1,2,5]triazepine], the inhibition of ptosis ([1]; at a dose of 10 mg/kg i.p.) is reported as 47% and the “% of Animals With Scopolamine Induced Memory Deficit Reversed” value ([2]; 2.5 mg/kg s.c.) is reported as 33%.

For `CN1c2ccncc2NCc2cccn21` [10,11-Dihydro-5-methyl-5H-pyrido[3,4-f]pyrrolo[1,2-b][1,2,5]triazepine], the “% Inhibition of Writhing” value ([3]; at a dose of 12.6 mg/kg s.c. (footnote 1)) was 50%.

With `CN(C)CCCC1Nc2cnccc2N(C)n2cccc21` (centres unmarked) [10,11-Dihydro-5-methyl-10-[3-(N,N-dimethylamino)propyl]-5H-pyrido[3,4-f]pyrrolo[1,2-b][1,2,5]triazepine] the “% of Animals With Scopolamine Induced Memory Deficit Reversed” value ([2]; 1.25 mg/kg s.c.) was 27% and the “% Inhibition of Writhing at a Screening Dose of 20 mg/kg, s.c.” value (shortened to “% Inhibition of Writhing … s.c.”) [3] was 57%.

Compound `CN1CCC(C2Nc3cnccc3N(C)n3cccc32)CC1` (centres unmarked) [10,11-Dihydro-5-methyl-10-[(1-methyl)piperidin-4-yl]-5H-pyrido[3,4-f]pyrrolo[1,2-b][1,2,5]triazepine] has an ED50 [1] of 15.7 mg/kg and an ED50 ([4]; rats, p.o., daily for 21 days, dose for 50% inhibition of adjuvant induced inflammation, non-injected paw) of 53.7 mg/kg.

In the case of `CNC(=O)N1Cc2cccn2N(C)c2ccncc21.O=C(O)/C=C\C(=O)O` [10,11-Dihydro-5-methyl-11-methylcarbamyl-5H-pyrido[3,4-f]pyrrolo[1,2-b][1,2,5]triazepine maleate], the “% Inhibition of Writhing … s.c.” value [3] is reported as 44%.

In the case of `CN1c2ccncc2NC(c2ccccc2)c2cccn21` (centres unmarked) [10,11-dihydro-5-methyl-10-phenyl-5H-pyrido[3,4-f]pyrrolo[1,2-b][1,2,5]triazepine], the “% Inhibition of Writhing … s.c.” value [3] is reported as 47%.

In the case of `CN1c2ccncc2N(C=O)Cc2cccn21.O=C(O)/C=C\C(=O)O` [11-Formyl-10,11-dihydro-5-methyl-5H-pyrido[3,4-f]pyrrolo[1,2-b][1,2,5]triazepine maleate], the “% Inhibition of Writhing … s.c.” value [3] is reported as 47%.

Compound `CC(=O)Oc1ccccc1C(=O)O` [Aspirin, reference compound] has an ED50 [4] of 110 mg/kg.

For `CC(C)=CCN1CCC2(C)c3cc(O)ccc3CC1C2C` (centres unmarked) [Pentazocine, reference compound], the “% Inhibition of Writhing” value ([3]; at a dose of 1.3 mg/kg s.c. (footnote 2)) was 50%.

For `CN(C)CCC=C1c2ccccc2CCc2ccccc21` [amitryptyline, reference compound], the ED50 [1] was 1.5 mg/kg.

With `CNC(=O)Oc1ccc2c(c1)[C@]1(C)CCN(C)[C@@H]1N2C` [physostigmine, reference compound] the “% of Animals With Scopolamine Induced Memory Deficit Reversed” value ([2]; 0.31 mg/kg s.c.) was 20%.
